Results from US20150141381A1, “TETRACYCLINE COMPOUNDS HAVING TARGET THERAPEUTIC ACTIVITIES” (Paratek Pharmaceuticals, Inc., priority 2001, published 2015).
Read-outs that look alike come from different tables or passages of the source.

Key:
E. coli mL308 225 = assay: In Vitro Anti-Bacterial Activity Assay (MIC), gram negative; assay type: cell-based; conditions: Escherichia coli, ML308225, 18 h, read-out: Antibiotic Activity Gram −
S. aureus RN450 = assay: In Vitro Anti-Bacterial Activity Assay (MIC), gram positive; assay type: cell-based; conditions: Staphylococcus aureus, RN450, 18 h, read-out: Antibiotic Activity Gram +

Row | Compound | MIC (E. coli mL308 225; MIC class, Table 3) [µg/mL] | MIC (S. aureus RN450; MIC class, Table 3) [µg/mL] | MIC (E. coli mL308 225) [µg/mL] | MIC (S. aureus RN450) [µg/mL]
1 | CC(=O)Nc1ccc(C#Cc2ccc(O)c3c2C[C@H]2C[C@H]4[C@H](N(C)C)C(O)=C(C(N)=O)C(=O)[C@@]4(O)C(O)=C2C3=O)cc1 [CO] | > 4 | < 4 |  | 
2 | CN(C)[C@@H]1C(O)=C(C(N)=O)C(=O)[C@@]2(O)C(O)=C3C(=O)c4c(O)ccc(CCCNS(C)(=O)=O)c4C[C@H]3C[C@@H]12 [CQ] | > 4 | < 4 |  | 
3 | CC(O)CCc1ccc(O)c2c1C[C@H]1C[C@H]3[C@H](N(C)C)C(O)=C(C(N)=O)C(=O)[C@@]3(O)C(O)=C1C2=O (some centres unmarked) [CR] | > 4 | < 4 |  | 
4 | CCc1cc(CNC(=O)c2cccnc2)c(O)c2c1C[C@H]1C[C@H]3[C@H](N(C)C)C(O)=C(C(N)=O)C(=O)[C@@]3(O)C(O)=C1C2=O [CS] | > 4 | > 4 |  | 
5 | CCc1cc(CN)c(O)c2c1C[C@H]1C[C@H]3[C@H](N(C)C)C(O)=C(C(N)=O)C(=O)[C@@]3(O)C(O)=C1C2=O [CT] | < 4 | > 4 |  | 
6 | C[C@H]1c2ccc(/C=C\C(=O)NC(C)(C)C)c(O)c2C(=O)C2=C(O)[C@]3(O)C(=O)C(C(N)=O)=C(O)[C@@H](N(C)C)[C@@H]3[C@@H](O)[C@@H]21 [CU] | > 4 | > 4 |  | 
7 | CN(C)[C@@H]1C(O)=C(C(N)=O)C(=O)[C@@]2(O)C(O)=C3C(=O)c4c(O)c(CNC(=O)c5cccnc5)cc(CCC5CCCCC5)c4C[C@H]3C[C@@H]12 [CV] | > 4 | < 4 |  | 
8 | CN(C)c1cc(C#Cc2ccc(N)cc2)c(O)c2c1C[C@H]1C[C@H]3[C@H](N(C)C)C(O)=C(C(N)=O)C(=O)[C@@]3(O)C(O)=C1C2=O [CX] | > 4 | > 4 |  | 
9 | COC(=O)C#Cc1cc(N(C)C)c2c(c1O)C(=O)C1=C(O)[C@]3(O)C(=O)C(C(N)=O)=C(O)C(N(C)C)[C@@H]3C[C@@H]1C2 (some centres unmarked) [CY] | > 4 | < 4 |  | 
10 | Cc1ccc(S(=O)(=O)NCC#Cc2cc(N(C)C)c3c(c2O)C(=O)C2=C(O)[C@]4(O)C(=O)C(C(N)=O)=C(O)C(N(C)C)[C@@H]4C[C@@H]2C3)cc1 (some centres unmarked) [CZ] | > 4 | > 4 |  | 
11 | CN(C)c1cc(NC(=S)Nc2ccc([N+](=O)[O-])cc2)c(O)c2c1C[C@H]1C[C@H]3[C@H](N(C)C)C(O)=C(C(N)=O)C(=O)[C@@]3(O)C(O)=C1C2=O [DA] | > 4 | < 4 |  | 
12 | CN(C)c1cc(NC(=O)Nc2ccc(F)c([N+](=O)[O-])c2)c(O)c2c1C[C@H]1C[C@H]3[C@H](N(C)C)C(O)=C(C(N)=O)C(=O)[C@@]3(O)C(O)=C1C2=O [DB] | > 4 | < 4 |  | 
13 | CN(C)c1cc(NC(=O)Nc2ccc(Cl)cc2[N+](=O)O)c(O)c2c1C[C@H]1C[C@H]3[C@H](N(C)C)C(O)=C(C(N)=O)C(=O)[C@@]3(O)C(O)=C1C2=O [DC] | > 4 | < 4 |  | 
14 | CN(C)c1cc(NC(=O)Nc2cccc(F)c2)c(O)c2c1C[C@H]1C[C@H]3[C@H](N(C)C)C(O)=C(C(N)=O)C(=O)[C@@]3(O)C(O)=C1C2=O [DD] | > 4 | < 4 |  | 
15 | CN(C)[C@@H]1C(O)=C(C(N)=O)C(=O)[C@@]2(O)C(O)=C3C(=O)c4c(O)c(CN)cc(-c5cccc([N+](=O)O)c5)c4C[C@H]3C[C@@H]12 [DE] | > 4 | < 4 |  | 
16 | CN(C)[C@@H]1C(O)=C(C(N)=O)C(=O)[C@@]2(O)C(O)=C3C(=O)c4c(O)c(CN)cc(-c5ccc(F)cc5)c4C[C@H]3C[C@@H]12 [DF] | > 4 | < 4 |  | 
17 | CCCCCc1ccc(O)c2c1C[C@H]1C[C@H]3[C@H](N(C)C)C(O)=C(C(N)=O)C(=O)[C@@]3(O)C(O)=C1C2=O [DG] | > 4 | < 4 |  | 
18 | CC(C)S(=O)(=O)NCC#Cc1cc(N(C)C)c2c(c1O)C(=O)C1=C(O)[C@]3(O)C(=O)C(C(N)=O)=C(O)[C@@H](N(C)C)[C@@H]3C[C@@H]1C2 [DI] | > 4 | > 4 |  | 
19 | CCCC#Cc1ccc(O)c2c1C[C@H]1C[C@H]3[C@H](N(C)C)C(O)=C(C(N)=O)C(=O)[C@@]3(O)C(O)=C1C2=O [DK] | > 4 | > 4 |  | 
20 | CCCCOC(=O)C#Cc1cc(N(C)C)c2c(c1O)C(=O)C1=C(O)[C@]3(O)C(=O)C(C(N)=O)=C(O)[C@@H](N(C)C)[C@@H]3C[C@@H]1C2 [DL] | > 4 | > 4 |  | 
21 | CCc1ccc(O)c2c1C[C@H]1C[C@H]3[C@@H](N(C)C)C(O)=C(C(N)=O)C(=O)[C@@]3(O)C(O)=C1C2=O [DM] | > 4 | < 4 |  | 
22 | CN(C)c1ccc(O)c2c1C[C@H]1C[C@H]3[C@H](N(C)C)C(O)=C(C(=O)NCNC(=O)CCl)C(=O)[C@@]3(O)C(O)=C1C2=O [DN] | > 4 | < 4 |  | 
23 | CN(C)c1cc(NC(=O)Oc2ccc(Cl)cc2)c(O)c2c1C[C@H]1C[C@H]3[C@H](N(C)C)C(O)=C(C(N)=O)C(=O)[C@@]3(O)C(O)=C1C2=O [DP] |  |  | > 4 | > 4

Row | Compound | MIC (E. coli mL308 225; MIC class, Table 3) [µg/mL] | MIC (S. aureus RN450; MIC class, Table 3) [µg/mL] | MIC (E. coli mL308 225) [µg/mL] | MIC (S. aureus RN450) [µg/mL]
24 | CN(C)c1cc(C#CCc2ccccc2)c(O)c2c1C[C@H]1C[C@H]3[C@H](N(C)C)C(O)=C(C(N)=O)C(=O)[C@@]3(O)C(O)=C1C2=O [DQ] | > 4 | < 4 |  | 
25 | CC(=O)NCc1cc(N(C)C)c2c(c1O)C(=O)C1=C(O)[C@]3(O)C(=O)C(C(N)=O)=C(O)C(N(C)C)[C@@H]3C[C@@H]1C2 (some centres unmarked) [DR] | > 4 | < 4 |  | 
26 | CCOP(=O)(OCC)C(Nc1ccccc1)c1ccc(-c2cc(N(C)C)c3c(c2O)C(=O)C2=C(O)[C@]4(O)C(=O)C(C(N)=O)=C(O)C(N(C)C)[C@@H]4C[C@@H]2C3)cc1 (some centres unmarked) [DS] |  |  | > 4 | < 4
27 | CN(C)c1cc(NC(=O)Oc2ccccc2)c(O)c2c1C[C@H]1C[C@H]3[C@H](N(C)C)C(O)=C(C(N)=O)C(=O)[C@@]3(O)C(O)=C1C2=O [DT] |  |  | > 4 | > 4
28 | CC(C)COC(=O)Nc1cc(N(C)C)c2c(c1O)C(=O)C1=C(O)[C@]3(O)C(=O)C(C(N)=O)=C(O)[C@@H](N(C)C)[C@@H]3C[C@@H]1C2 [DU] | > 4 | < 4 |  | 
29 | COc1ccc(OC(=O)Nc2cc(N(C)C)c3c(c2O)C(=O)C2=C(O)[C@]4(O)C(=O)C(C(N)=O)=C(O)[C@H](N(C)C)[C@@H]4C[C@@H]2C3)cc1 [DV] |  |  | > 4 | > 4
30 | CN(C)CC(=O)Nc1ccc2c(c1O)C(=O)C1=C(O)[C@]3(O)C(=O)C(C(N)=O)=C(O)[C@@H](N(C)C)[C@@H]3C[C@@H]1C2 [DW] | < 4 | < 4 |  | 
31 | CCCCCc1cc(N(C)C)c2c(c1O)C(=O)C1=C(O)[C@]3(O)C(=O)C(C(N)=O)=C(O)[C@@H](N(C)C)[C@@H]3C[C@@H]1C2 [DX] | > 4 | < 4 |  | 
32 | CCCC#Cc1cc(N(C)C)c2c(c1O)C(=O)C1=C(O)[C@]3(O)C(=O)C(C(N)=O)=C(O)[C@@H](N(C)C)[C@@H]3C[C@@H]1C2 [DY] | > 4 | < 4 |  | 
33 | CN(C)c1cc(NC(=O)CNC(C)(C)C)c(O)c2c1C[C@H]1C[C@H]3[C@H](N(C)C)C(O)=C(C(N)=O)C(=O)[C@@]3(O)C(O)=C1C2=O [DZ] | < 4 | < 4 |  | 
34 | CN(C)[C@@H]1C(O)=C(C(N)=O)C(=O)[C@@]2(O)C(O)=C3C(=O)c4c(O)cccc4[C@@](C)(O)[C@H]3C[C@@H]12 [D] | < 4 | < 4 |  | 
35 | CCC(=O)c1ccc(O)c2c1C[C@H]1C[C@H]3[C@H](N(C)C)C(O)=C(C(N)=O)C(=O)[C@@]3(O)C(O)=C1C2=O [EA] | < 4 | < 4 |  | 
36 | CC(=O)c1cc(C(C)=O)c2c(c1O)C(=O)C1=C(O)[C@]3(O)C(=O)C(C(N)=O)=C(O)[C@@H](N(C)C)[C@@H]3C[C@@H]1C2 [EB] | > 4 | < 4 |  | 
37 | CCN(CC)Cc1ccc(OC)c(-c2ccc(O)c3c2C[C@H]2C[C@H]4C(N(C)C)C(O)=C(C(N)=O)C(=O)[C@@]4(O)C(O)=C2C3=O)c1 (some centres unmarked) [EC] | < 4 | < 4 |  | 
38 | COc1ccc(CN2CCCC2)cc1-c1ccc(O)c2c1C[C@H]1C[C@H]3C(N(C)C)C(O)=C(C(N)=O)C(=O)[C@@]3(O)C(O)=C1C2=O (some centres unmarked) [ED] | < 4 | < 4 |  | 
39 | CCCNCc1ccc(OC)c(-c2ccc(O)c3c2C[C@H]2C[C@H]4C(N(C)C)C(O)=C(C(N)=O)C(=O)[C@@]4(O)C(O)=C2C3=O)c1 (some centres unmarked) [EF] | < 4 | < 4 |  | 
40 | COc1ccc(CNCC(C)C)cc1-c1ccc(O)c2c1C[C@H]1C[C@H]3[C@H](N(C)C)C(O)=C(C(N)=O)C(=O)[C@@]3(O)C(O)=C1C2=O [EG] | < 4 | < 4 |  | 
41 | CN(C)c1cc(CNCCc2ccccc2)c(O)c2c1C[C@H]1C[C@H]3C(N(C)C)C(O)=C(C(N)=O)C(=O)[C@@]3(O)C(O)=C1C2=O (some centres unmarked) [EH] | < 4 | < 4 |  | 
42 | CCCCc1ccc(-c2cc(N(C)C)c3c(c2O)C(=O)C2=C(O)[C@]4(O)C(=O)C(C(N)=O)=C(O)[C@@H](N(C)C)[C@@H]4C[C@@H]2C3)cc1 [EI] | > 4 | > 4 |  | 
43 | CCc1ccc(-c2cc(N(C)C)c3c(c2O)C(=O)C2=C(O)[C@]4(O)C(=O)C(C(N)=O)=C(O)[C@@H](N(C)C)[C@@H]4C[C@@H]2C3)cc1 [EJ] | > 4 | < 4 |  | 
44 | CN(C)c1cc(-c2ccc(OC(F)(F)F)cc2)c(O)c2c1C[C@H]1C[C@H]3[C@H](N(C)C)C(O)=C(C(N)=O)C(=O)[C@@]3(O)C(O)=C1C2=O [EK] | > 4 | < 4 |  | 
45 | CN(C)[C@@H]1C(O)=C(C(N)=O)C(=O)[C@@]2(O)C(O)=C3C(=O)c4c(O)ccc(C(=O)Cc5ccccn5)c4C[C@H]3C[C@@H]12 [EL] | < 4 | < 4 |  | 
46 | CCc1cc(CNC(C)=O)c(O)c2c1C[C@H]1C[C@H]3C(N(C)C)C(O)=C(C(N)=O)C(=O)[C@@]3(O)C(O)=C1C2=O (some centres unmarked) [EM] | > 4 | < 4 |  | 
